Assay results as given in US8604059B2, “Thioxanthene derivatives for the treatment of infectious diseases” (BKG Pharma APS, priority 2009, dated 2013).
Values joined by “and” are separate entries in the source; they are usually repeats but may differ in a detail not shown here. Equal entries are not always repeated.

Key:
strain IIIB of HIV-1 = assay: Inhibition of HIV-1 replication in MT4 cells, MTT assay; assay type: cell-based
Description: The enhancing effect of compound 3 on anti-viral agents was studied by checkerboard combination studies exposing HIV infected cells to 0-3 μM anti-viral agent in the absence or presence of compound 3 in concentrations from 0 to 6 μM. Each experiment was repeated in tripleduplicate. MIC values represent the mean values of two separate experiments.
The HIV-1 strain HTLV-IIIB were propagated in H9 cells at 37° C., 5% CO2 using RPMI 1640 with 10% heat-inactivated foetal calf serum (FCS) and antibiotics (growth medium). Culture supernatant was filtered ([…]), aliquotted, and stored at −80° C. until use. The HIV-1 strain was obtained from NIH AIDS Research and Reference Program.
Compounds were examined for possible antiviral activity against strain IIIB of HIV-1 using MT4 cells as target cells. MT4 cells were incubated with virus (0.005 MOI) and growth medium containing the test dilutions of compound(s) for six days in parallel with virus-infected and uninfected control cultures without compound added. Expression of HIV in the cultures was indirectly quantified using the MTT assay as previously described. Compounds mediating less than 30% reduction of HIV expression were considered without biological activity. Compounds were tested in parallel for cytotoxic effect in uninfected MT4 cultures containing the test dilutions of compound as described above. Cultures for test of both antiviral activity and cytotoxic effect were set up in tripleduplicates, […] per culture in micro titre plates. A 30% inhibition of cell growth relative to control cultures was considered significant. The 50% inhibitory concentration was determined by interpolation from the plots of percent inhibition versus concentration of compound.
EC50 is defined as the effective concentration that inhibits 50% of viral production, 50% of viral infectivity, or 50% of the virus-induced cytopathic effect.

[1] = test system: E. coli MDR clinical isolates; assay: FIC index, synergy with antibiotics (Table 4a); assay type: cell-based; details: 8 MDR E. coli, mean, compound at ¼ of MIC
Description: The effect of the compounds was tested according to the methods described in WO2005/105145. In brief, cell growth was tested using the MIC susceptibility tests by use of the microdilution broth method in accordance to the NCCLS Guidelines (NCCLS Guidelines, Methods for Dilution Antimicrobial Susceptibility Tests for Bacteria That Grow Aerobically; Approved Standard, Sixth Edition, Volume 23; Number 2).
The Fractional Inhibitory Concentration (FIC) index were calculated for each compound as described in WO2005/105145. Synergy was defined for Fractional Inhibitory Concentration (FIC) indices less than 0.5
E. coli: 8 in vivo-selected multidrug resistant clinical isolates of E. coli. Resistant to tetracycline, beta-lactams, fluoroquinolones, chloramphenicol and aminoglycoside

[2] = test system: Enterococcus faecalis ENT 28 (VRE); assay: Mouse peritonitis model, neutropenic NMRI mice, enhancing effect with linezolid; assay type: in vivo
Description: A multiresistant clinical isolate of Enterococcus faecalis ENT 28 (VRE) from human urine was used.
Female NMRI mice (age, approximately 6 to 8 weeks; weight, 30±2 g) were used for the mouse […] peritonitis model (as described below).
In order to detect any synergistic effect, infected mice were treated with sub-therapeutic doses of each test compound alone or a mixture of the two compounds.
Bacterial suspensions were prepared from fresh overnight cultures (made from frozen stock cultures) on 5% blood agar plates as described above. The inoculum for the mouse peritonitis model was prepared immediately before use and was adjusted at 540 nm of giving a density of approximately 10^7 CFU/ml. The size of the inoculum was determined by viability counting on 5% blood agar.
Neutropenia was introduced by pretreating the mice with cyclophosphamide (6 mg daily for three days). […] Antibiotic therapy was initiated just after inoculation. Linezolid and compound 3 was administered subcutaneously in the neck region in a volume of 0.5 ml per dose. 3 mice were in each treatment group. Inoculated untreated control mice were included in all trials. (Method reference: Erlandsdottir et al; Antimicrob Agents Chemother. 2001 April; 45(4):1078-85)
The effects of the various treatment regimens were determined during 5 h of treatment by evaluation of bacterial counts in the peritoneal fluid. After the mice were killed, peritoneal washes were performed by injecting 2 ml of sterile saline intraperitoneally, followed by massage of the abdomen and then opening of the peritoneum to collect the fluid. Peritoneal fluids were immediately diluted 10-fold in saline, from which 20 μl was plated onto 5% blood agar plates in spots, with subsequent counting of colonies after incubation overnight at 35° C. The lowest detection levels for bacterial counts in blood and peritoneal fluid were 50 and 250 CFU/ml, respectively.

S. aureus O11 = assay: Emergence of in vitro-selected single-step ciprofloxacin resistance; assay type: cell-based; details: ciprofloxacin 1 μg per ml (two times the MIC); inhibitor 1 μg/ml; 24 h
Description: The frequency of mutant selection was determined to be 3×10−8 by comparing the number of colonies that grew on plates containing the anti-infective agent with the number of colonies obtained upon plating appropriate dilutions in the absence of anti-infective agents.

Candida albicans = assay: Synergy with fluconazole, broth microdilution NCCLS M27-A (Table 10); assay type: cell-based
Description: The isolates were subcultured for 24 h on Sabouraud glucose agar before susceptibility testing. Broth microdilution tests were performed according to NCCLS document M27-A (Ref: National Commitee for Clinical Laboratory Standards. (1997). Reference Method for Broth Dilution Antifungal Susceptibility Testing of Yeasts: Approved Standard M27-A. NCCLS, Wayne, Pa.) Microtitre plates were read spectrophotometrically at 530 nm, after mixing the wells by pipetting to resuspend yeast sediments. […] The Fractional Inhibitory Concentration (FIC) was calculated for the anti-infective agent alone and in combination with compound 3 and 4 (see table 4) as described above. Synergy was defined as a FIC index of <0.5.

[3] = treatment 0 and 2 hours, sampling 5 hours, sub-therapeutic doses as in Table 9, individual mice

**Q.** Which EC50 (strain IIIB of HIV-1; Human immunodeficiency virus 1, IIIB, 144 h, single agent, MT4 cells, six days, read-out: EC50) does the source give for `Clc1ccc2c(c1)/C(=C/CCC1CCNCC1)c1ccccc1S2` [Compound 3] here?
**A.** > 4 µM

**Q.** What about the “Antiviral effect alone” value (strain IIIB of HIV-1; at the concentrations used) of the same molecule?
**A.** no antiviral or cytotoxic effect

**Q.** And the “Enhancement of the antiviral effect of AZT” value (strain IIIB of HIV-1; combination of compound 3 and AZT)?
**A.** 5 time

**Q.** And the FIC index ([1]; with Ampicillin)?
**A.** 0.44

**Q.** And the FIC index ([1]; with Ciprofloxacin)?
**A.** 0.44

**Q.** What about the FIC index ([1]; with Gentamycin) of the same molecule?
**A.** 0.44

**Q.** What about the FIC index ([1]; with Tetracycline) of the same molecule?
**A.** 0.44

**Q.** What about the “Effect on the infection / bacteria in mouse peritoneum” value ([2]; sub-therapeutic dose alone) of the same molecule?
**A.** did not affect the bacteria

**Q.** And the score at sampling ([2]; treatment 0 and 2 hours, sampling 5 hours, Linezolid 1 mg/ml 0.5 ml, Compound 3 0.1 mg/ml 0.5, combination Linezolid 2 mg/ml (0.25 ml) and compound 3 0.2 mg/ml (0.25 ml), individual mice)?
**A.** 1 and 2 (2×)

**Q.** And the Cfu/ml peritoneum [2, 3]?
**A.** 2.35E+09 Cfu/ml and 2.63E+09 Cfu/ml and 3.15E+09 Cfu/ml

**Q.** What about the “log (cfu/ml) peritoneum” value [2, 3] of the same molecule?
**A.** 9.37 log (cfu/ml) and 9.42 log (cfu/ml) and 9.50 log (cfu/ml)

**Q.** And the “Frequency of emergence of resistance” value (S. aureus O11)?
**A.** <1 × 10^−10

**Q.** What about the MIC (Candida albicans; Candida albicans, compound alone, read-out: MIC Compound) of the same molecule?
**A.** 1 µg/mL

**Q.** And the FIC index (Candida albicans; in combination with fluconazole)?
**A.** 0.28
